From PubChem BioAssay AID180 (DTP/NCI, 2004)
“And” between values parts separate entries of the source, which are not always exact repeats. Identical values can stand only once.

Test system: BDF1 mice, Adenocarcinoma 755 s.c., tumor weight T/C
Test: NCI In Vivo Anticancer Drug Screen. Data for tumor model Adenocarcinoma 755 (subcutaneous) in B6D2F1 (BDF1) mice
Conditions: endpoint: mean tumor weight, higher = larger tumour
In short: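 Compound activity was tested in mice carrying transplanted tumors. Survival or tumor size was measured, and each value is the treated-group measurement divided by that of the vehicle-treated control group (T/C).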

[1] = dose: 7.5 mg/kg/injection, schedule: Q01DX011 (ip), vehicle: carboxymethylcellulose (CMC)
[2] = dose: 25.0 mg/kg/injection, schedule: Q01DX011 (ip), vehicle: carboxymethylcellulose (CMC)
[3] = dose: 1.1 mg/kg/injection, schedule: Q01DX011 (ip), vehicle: carboxymethylcellulose (CMC)
[4] = dose: 100.0 mg/kg/injection, schedule: Q01DX011 (ip), vehicle: other
[5] = dose: 30.0 mg/kg/injection, schedule: Q01DX011 (ip), vehicle: carboxymethylcellulose (CMC)
[6] = dose: 60.0 mg/kg/injection, schedule: Q01DX011 (ip), vehicle: carboxymethylcellulose (CMC)
[7] = dose: 31.0 mg/kg/injection, schedule: Q01DX011 (ip), vehicle: methylcellulose (MC)
[8] = dose: 62.0 mg/kg/injection, schedule: Q01DX011 (ip), vehicle: methylcellulose (MC)
[9] = dose: 132.0 mg/kg/injection, schedule: Q01DX011 (sc), vehicle: steriod suspending solution
[10] = dose: 264.0 mg/kg/injection, schedule: Q01DX011 (sc), vehicle: steriod suspending solution
[11] = dose: 200.0 mg/kg/injection, schedule: Q01DX011 (ip), vehicle: carboxymethylcellulose (CMC)

`CCn1cnc2c(SC3CCCC3)ncnc21` was tested, and the T/C (dose: 5.0 mg/kg/injection, schedule: Q01DX011 (ip), vehicle: carboxymethylcellulose (CMC)) was 16 % of control, the T/C [1] was 4 % of control and the T/C (dose: 10.0 mg/kg/injection, schedule: Q01DX011 (ip), vehicle: carboxymethylcellulose (CMC)) was 3 % of control. For the same molecule, the T/C [2] was 14 % of control.

In the case of `Nc1nc(SCc2ccccn2)c2ncn(C3CCCC3)c2n1`, the T/C [3] is reported as 79 % of control, the T/C (dose: 2.3 mg/kg/injection, schedule: Q01DX011 (ip), vehicle: carboxymethylcellulose (CMC)) is reported as 96 % of control and the T/C (dose: 4.6 mg/kg/injection, schedule: Q01DX011 (ip), vehicle: carboxymethylcellulose (CMC)) is reported as 74 % of control. For the same molecule, the T/C (dose: 9.3 mg/kg/injection, schedule: Q01DX011 (ip), vehicle: carboxymethylcellulose (CMC)) was 22 % of control and the T/C (dose: 37.5 mg/kg/injection, schedule: Q01DX011 (ip), vehicle: carboxymethylcellulose (CMC)) was 2 % of control.

For `[I][Hg][CH2][C@H]1CO[C@H]([CH2][Hg][I])CO1`, the T/C (dose: 6.0 mg/kg/injection, schedule: Q01DX011 (ip), vehicle: carboxymethylcellulose (CMC)) was 95 % of control, the T/C (dose: 12.0 mg/kg/injection, schedule: Q01DX011 (ip), vehicle: carboxymethylcellulose (CMC)) was 46 % of control and the T/C [2] was 32 % of control and 33 % of control. For the same molecule, the T/C (dose: 50.0 mg/kg/injection, schedule: Q01DX011 (ip), vehicle: carboxymethylcellulose (CMC)) was 21 % of control.

For `CC1CCN(/N=N/c2nc3c([nH]2)c(=O)n(C)c(=O)n3C)CC1`, the T/C (dose: 25.0 mg/kg/injection, schedule: Q01DX011 (ip), vehicle: methylcellulose (MC)) was 41 % of control and the T/C (dose: 75.0 mg/kg/injection, schedule: Q01DX011 (ip), vehicle: methylcellulose (MC)) was 57 % of control.

For `CN(C)CCO`, the T/C [4] was 97 % of control.

With `Cn1c(=O)c2cc[nH]c2n(C)c1=O` the T/C [5] was 87 % of control and the T/C [6] was 100 % of control.

For `Cc1cnc(SCc2ccc(Cl)cc2)[nH]c1=O`, the T/C (dose: 15.0 mg/kg/injection, schedule: Q01DX011 (ip), vehicle: methylcellulose (MC)) was 74 % of control, the T/C [7] was 84 % of control and the T/C [8] was 57 % of control. The T/C (dose: 125.0 mg/kg/injection, schedule: Q01DX011 (ip), vehicle: methylcellulose (MC)) was 49 % of control and the T/C (dose: 250.0 mg/kg/injection, schedule: Q01DX011 (ip), vehicle: methylcellulose (MC)) was 81 % of control.

In the case of `O=C1C=CC(=O)O1` (tested in a mixture with another compound), the T/C (dose: 11.0 mg/kg/injection, schedule: Q01DX011 (ip), vehicle: carboxymethylcellulose (CMC)) is reported as 39 % of control and 57 % of control, the T/C (dose: 11.0 mg/kg/injection, schedule: Q01DX011 (ip), vehicle: saline) is reported as 56 % of control and the T/C (dose: 22.0 mg/kg/injection, schedule: Q01DX011 (ip), vehicle: carboxymethylcellulose (CMC)) is reported as 18 % of control and 38 % of control. The T/C (dose: 22.0 mg/kg/injection, schedule: Q01DX011 (ip), vehicle: saline) was 31 % of control and the T/C (dose: 90.0 mg/kg/injection, schedule: Q01DX011 (ip), vehicle: carboxymethylcellulose (CMC)) was 11 % of control and 32 % of control.

With `Nc1ncnc2[nH]ncc12` the T/C (dose: 0.94 mg/kg/injection, schedule: Q01DX011 (ip), vehicle: carboxymethylcellulose (CMC)) was 78 % of control, the T/C [3] was 69 % of control and the T/C (dose: 1.41 mg/kg/injection, schedule: Q01DX011 (ip), vehicle: carboxymethylcellulose (CMC)) was 73 % of control. For the same molecule, the T/C (dose: 1.5 mg/kg/injection, schedule: Q01DX011 (ip), vehicle: carboxymethylcellulose (CMC)) was 67 % of control, the T/C (dose: 1.88 mg/kg/injection, schedule: Q01DX011 (ip), vehicle: carboxymethylcellulose (CMC)) was 54 % of control and 61 % of control and the T/C (dose: 2.5 mg/kg/injection, schedule: Q01DX011 (ip), vehicle: carboxymethylcellulose (CMC)) was 32 % of control. For the same molecule, the T/C (dose: 3.1 mg/kg/injection, schedule: Q01DX011 (ip), vehicle: carboxymethylcellulose (CMC)) was 74 % of control, the T/C (dose: 3.75 mg/kg/injection, schedule: Q01DX011 (ip), vehicle: carboxymethylcellulose (CMC)) was 31 % of control and 36 % of control and the T/C (dose: 4.52 mg/kg/injection, schedule: Q01DX011 (ip), vehicle: carboxymethylcellulose (CMC)) was 108 % of control. For the same molecule, the T/C (dose: 5.65 mg/kg/injection, schedule: Q01DX011 (ip), vehicle: carboxymethylcellulose (CMC)) was 50 % of control and 63 % of control, the T/C (dose: 6.2 mg/kg/injection, schedule: Q01DX011 (ip), vehicle: carboxymethylcellulose (CMC)) was 6 % of control and the T/C [1] was 5 % of control and 6 % of control. The T/C (dose: 7.53 mg/kg/injection, schedule: Q01DX011 (ip), vehicle: carboxymethylcellulose (CMC)) was 36 % of control and the T/C (dose: 11.3 mg/kg/injection, schedule: Q01DX011 (ip), vehicle: carboxymethylcellulose (CMC)) was 31 % of control.

With `OC1C(O)C(O)C2(CO2)C(O)C1O` (centres undefined) the T/C (dose: 300.0 mg/kg/injection, schedule: Q01DX011 (ip), vehicle: saline) was 99 % of control.

In the case of `N#CCCn1cnc2c(Cl)ncnc21`, the T/C (dose: 50.0 mg/kg/injection, schedule: Q01DX011 (ip), vehicle: other) is reported as 85 % of control, the T/C [4] is reported as 157 % of control and the T/C (dose: 400.0 mg/kg/injection, schedule: Q01DX011 (ip), vehicle: other) is reported as 98 % of control. For the same molecule, the T/C (dose: 600.0 mg/kg/injection, schedule: Q01DX011 (ip), vehicle: other) was 63 % of control and the T/C (dose: 800.0 mg/kg/injection, schedule: Q01DX011 (ip), vehicle: other) was 94 % of control.

`C[C@]12C=CC(=O)C=C1CC[C@@H]1[C@@H]2[C@@H](O)C[C@@]2(C)[C@H]1CC[C@]2(O)C(=O)CF` was tested, and the T/C (dose: 8.0 mg/kg/injection, schedule: Q01DX011 (sc), vehicle: steriod suspending solution) was 64 % of control, the T/C (dose: 16.0 mg/kg/injection, schedule: Q01DX011 (sc), vehicle: steriod suspending solution) was 22 % of control and the T/C [9] was 30 % of control. The T/C [10] was 5 % of control.

With `CC(=O)[C@H]1CC[C@H]2[C@@H]3CCC4=CC(=O)C=C[C@]4(C)[C@H]3C(=O)C[C@]12C` the T/C (dose: 66.0 mg/kg/injection, schedule: Q01DX011 (sc), vehicle: steriod suspending solution) was 62 % of control and 74 % of control, the T/C [9] was 37 % of control and 58 % of control and the T/C [10] was 25 % of control and 44 % of control. For the same molecule, the T/C (dose: 528.0 mg/kg/injection, schedule: Q01DX011 (sc), vehicle: steriod suspending solution) was 28 % of control and 35 % of control.

`Cn1c(Cl)nc2nc(Cl)nc(Cl)c21` was tested, and the T/C [1] was 110 % of control.

`SCc1ccccn1` was tested, and the T/C (dose: 37.8 mg/kg/injection, schedule: Q01DX011 (ip), vehicle: carboxymethylcellulose (CMC)) was 109 % of control and the T/C (dose: 300.0 mg/kg/injection, schedule: Q01DX011 (ip), vehicle: carboxymethylcellulose (CMC)) was 97 % of control.

With `CCCCN(C)N=Nc1ccc(CCC(=O)NN)cc1` the T/C (dose: 31.0 mg/kg/injection, schedule: Q01DX011 (ip), vehicle: carboxymethylcellulose (CMC)) was 19 % of control.

With `NCC(=O)Nc1ccc(O)cc1` the T/C [11] was 22 % of control and 42 % of control.

With `Nc1[nH]cnc(=S)c1NC=O` the T/C [5] was 84 % of control, the T/C [6] was 63 % of control and the T/C (dose: 120.0 mg/kg/injection, schedule: Q01DX011 (ip), vehicle: carboxymethylcellulose (CMC)) was 86 % of control. The T/C [11] was 101 % of control, the T/C (dose: 240.0 mg/kg/injection, schedule: Q01DX011 (ip), vehicle: carboxymethylcellulose (CMC)) was 26 % of control and the T/C (dose: 400.0 mg/kg/injection, schedule: Q01DX011 (ip), vehicle: carboxymethylcellulose (CMC)) was 29 % of control.

With `CSc1ncc(Br)c(SC)n1` the T/C [7] was 102 % of control and the T/C [8] was 93 % of control.

For `CCCCCCCCCCCCNCCCCCCCCCCCC`, the T/C (dose: 2.5 mg/kg/injection, schedule: Q01DX011 (ip), vehicle: other) was 41 % of control.

In the case of `CC(=O)[C@@]1(O)[C@H](C)C[C@H]2[C@@H]3C=C(C)C4=Cc5c(cnn5-c5ccccc5)C[C@]4(C)[C@H]3[C@@H](O)C[C@@]21C`, the T/C (dose: 0.01 mg/kg/injection, schedule: Q01DX011 (sc), vehicle: steriod suspending solution) is reported as 70 % of control, the T/C (dose: 0.03 mg/kg/injection, schedule: Q01DX011 (sc), vehicle: steriod suspending solution) is reported as 43 % of control and the T/C (dose: 0.05 mg/kg/injection, schedule: Q01DX011 (sc), vehicle: steriod suspending solution) is reported as 41 % of control. For the same molecule, the T/C (dose: 0.2 mg/kg/injection, schedule: Q01DX011 (sc), vehicle: steriod suspending solution) was 27 % of control and 44 % of control, the T/C (dose: 0.3 mg/kg/injection, schedule: Q01DX011 (sc), vehicle: steriod suspending solution) was 14 % of control and 28 % of control and the T/C (dose: 0.5 mg/kg/injection, schedule: Q01DX011 (sc), vehicle: steriod suspending solution) was 33 % of control. The T/C (dose: 30.0 micrograms/kg/injection, schedule: Q01DX011 (ip), vehicle: saline) was 115 % of control, the T/C (dose: 60.0 micrograms/kg/injection, schedule: Q01DX011 (ip), vehicle: saline) was 115 % of control and the T/C (dose: 120.0 micrograms/kg/injection, schedule: Q01DX011 (ip), vehicle: saline) was 105 % of control.
